From patent US11753404B2, “Aminothiazole compounds as c-Kit inhibitors” (Ariad Pharmaceuticals, Inc., priority 2016, dated 2023)

Columns and labels:
Assay in all cases: c-Kit assay: Ba/F3 KIT mutant cell viability (Cell Titer-Glo, 72 hours)
Assay type in all cases: cell-based
Details in all cases: viability after 72 hours
BAF3 FL KIT EX11DEL = biological target: T1, BAF3 FL KIT EX11DEL (Homo sapiens, UniProt P10721, cells depend on it, form not given)
T1 construct: BAF3 FL KIT EX11DEL
Procedure: (§1) Generation of DBa/F3 KIT Mutant Engineered Cell Lines
(§2) KIT cDNAs were synthesized by GenScript and cloned into the pLVX-IRES-Puro vector (Clontech). Viral particles were produced by transfecting pLVX-IRES-puro vectors containing KIT mutant genes into HEK293 cells (Invitrogen) using the Trans-Lentiviral ORF Packaging Kit (Thermo Scientific). 48 hours post-transfection, virus-containing supernatants were harvested and incubated for another 48-72 hours with parental Ba/F3 cells (DSMZ) in the presence of 10 ng/mL IL-3 (R&D Systems). Transduced Ba/F3 cells were then selected by IL-3 withdrawal and puromycin (0.5-1 μg/mL, Invitrogen).
(§3) Cell lines (e.g., EX11DEL, EX11DEL/D816H, EX11DEL/T670I, and EX11DEL/V654A) were plated into 384 well plates using RPMI 1640 supplemented with 10% FBS at densities that produced linear growth and incubated at 37° C. in 5% (v/v) CO2. Cells were treated with eight concentrations of compound over a 4-fold dilution (10 μM to 0.61 nM) and viability was assessed using Cell Titer-Glo assay (Promega) after 72 hours. Data were plotted as percent viability relative to vehicle-treated cells. Dose-responses curves were generated and used to calculate IC50 values.

[1] = biological target: T2, BAF3 FL KIT EX11DEL/D816H (Homo sapiens, UniProt P10721, D816H, cells depend on it, form not given)
T2 construct: BAF3 FL KIT EX11DEL/D816H
T2 sequence (P10721 with tags, fused parts or gaps DEL557-558/D816H, form open): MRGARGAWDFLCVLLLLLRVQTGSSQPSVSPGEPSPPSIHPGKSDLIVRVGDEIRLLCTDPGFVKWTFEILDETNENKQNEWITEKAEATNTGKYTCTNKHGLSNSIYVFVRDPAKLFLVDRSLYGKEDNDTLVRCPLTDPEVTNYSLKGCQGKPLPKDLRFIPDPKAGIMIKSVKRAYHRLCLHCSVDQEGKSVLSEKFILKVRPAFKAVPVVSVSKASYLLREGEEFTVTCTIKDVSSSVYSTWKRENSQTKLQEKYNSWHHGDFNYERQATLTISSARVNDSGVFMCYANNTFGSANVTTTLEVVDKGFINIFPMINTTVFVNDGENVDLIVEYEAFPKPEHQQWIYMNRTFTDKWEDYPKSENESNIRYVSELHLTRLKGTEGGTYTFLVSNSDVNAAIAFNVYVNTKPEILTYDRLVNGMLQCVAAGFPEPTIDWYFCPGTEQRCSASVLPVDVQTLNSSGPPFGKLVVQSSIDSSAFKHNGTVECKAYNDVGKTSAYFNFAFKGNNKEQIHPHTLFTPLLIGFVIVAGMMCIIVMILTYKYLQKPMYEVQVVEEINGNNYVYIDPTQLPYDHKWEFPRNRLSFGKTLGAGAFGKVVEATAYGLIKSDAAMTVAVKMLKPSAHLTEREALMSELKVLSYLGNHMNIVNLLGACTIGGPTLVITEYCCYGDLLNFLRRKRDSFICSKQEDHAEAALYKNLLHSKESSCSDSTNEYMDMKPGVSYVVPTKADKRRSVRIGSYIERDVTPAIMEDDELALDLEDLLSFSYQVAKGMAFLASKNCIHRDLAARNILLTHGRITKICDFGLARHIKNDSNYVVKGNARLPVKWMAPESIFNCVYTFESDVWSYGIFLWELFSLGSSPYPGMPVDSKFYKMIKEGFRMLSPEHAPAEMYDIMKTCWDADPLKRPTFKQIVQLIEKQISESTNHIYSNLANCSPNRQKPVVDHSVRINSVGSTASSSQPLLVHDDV
Procedure: as §1, §2, §3

[2] = biological target: T3, BAF3 FL KIT EX11DEL/T670I (Homo sapiens, UniProt P10721, T670I, cells depend on it, form not given)
T3 construct: BAF3 FL KIT EX11DEL/T670I
T3 sequence (P10721 with tags, fused parts or gaps DEL557-558/T670I, form open): as the sequence (P10721 with tags, fused parts or gaps DEL557-558/D816H, form open) above, with T668I, H814D counted along it
Procedure: as §1, §2, §3

[3] = biological target: T4, BAF3 FL KIT EX11DEL/V654A (Homo sapiens, UniProt P10721, V654A, cells depend on it, form not given)
T4 construct: BAF3 FL KIT EX11DEL/V654A
T4 sequence (P10721 with tags, fused parts or gaps DEL557-558/V654A, form open): as the sequence (P10721 with tags, fused parts or gaps DEL557-558/D816H, form open) above, with V652A, H814D counted along it
Procedure: as §1, §2, §3

T1 sequence (P10721 with tags, fused parts or gaps DEL557-558): as the sequence (P10721 with tags, fused parts or gaps DEL557-558/D816H, form open) above, with H814D counted along it

Compound | GI50 (BAF3 FL KIT EX11DEL) [nM] | GI50 [1] [nM] | GI50 [2] [nM] | GI50 [3] [nM]
Cc1ccc(C(=O)Nc2cc(C(F)(F)F)ccn2)cc1C#Cc1cnc(NC(=O)NCCN2CCCC2)s1 [I-12, 4-methyl-3-((2-(3-(2-(pyrrolidin-1-yl)ethyl)ureido)thiazol-5-yl)ethynyl)-N-(4-(trifluoromethyl)pyridin-2-yl)benzamide] | < 10 | 10 to 50 | 50 to 100 | 50 to 100
CNC(=O)Nc1ncc(C#Cc2ccc(F)c(C(=O)Nc3cc(C(F)(F)F)ccn3)c2)s1 [I-42, 2-fluoro-5-((2-(3-methylureido)thiazol-5-yl)ethynyl)-N-(4-(trifluoromethyl)pyridin-2-yl)benzamide] | < 10 | 100 to 10000 | 100 to 10000 | 100 to 10000
Cc1ccc(C(=O)Nc2cc(C(F)(F)F)ccn2)cc1C#Cc1cnc(NC(=O)N2CCC(C)CC2)s1 [I-25, 4-methyl-N-(5-((2-methyl-5-((4-(trifluoromethyl)pyridin-2-yl)carbamoyl)phenyl)ethynyl)thiazol-2-yl)piperidine-1-carboxamide] | 10 to 50 | 10 to 50 | 10 to 50 | 10 to 50
Cc1ccc(C(=O)Nc2cc(C(F)(F)F)ccn2)cc1C#Cc1cnc(NC(=O)N(C)CCN2CCCC2)s1 [I-19, 4-methyl-3-((2-(3-methyl-3-(2-(pyrrolidin-1-yl)ethyl)ureido)thiazol-5-yl)ethynyl)-N-(4-(trifluoromethyl)pyridin-2-yl)benzamide] | < 10 | 10 to 50 | 10 to 50 | 10 to 50
CNC(=O)Nc1ncc(C#Cc2cc(C(=O)Nc3cc(C(F)(F)F)ccn3)ccc2F)s1 [I-45, 4-fluoro-3-((2-(3-methylureido)thiazol-5-yl)ethynyl)-N-(4-(trifluoromethyl)pyridin-2-yl)benzamide] | < 10 | 10 to 50 | < 10 | 10 to 50
Cc1ccc(NC(=O)c2cc(C(F)(F)F)ccn2)cc1C#Cc1cnc(NC(=O)N(C)CCN(C)C)s1 [I-58, N-(3-((2-(3-(2-(dimethylamino)ethyl)-3-methylureido)thiazol-5-yl)ethynyl)-4-methylphenyl)-4-(trifluoromethyl)picolinamide] | < 10 | 50 to 100 | 100 to 10000 | 50 to 100
Cc1ccc(C(=O)Nc2cc(C(F)(F)F)ccn2)cc1C#Cc1cnc(NC(=O)NCCN)s1 [I-38, 3-((2-(3-(2-aminoethyl)ureido)thiazol-5-yl)ethynyl)-4-methyl-N-(4-(trifluoromethyl)pyridin-2-yl)benzamide] | < 10 | 50 to 100 | 50 to 100 | 50 to 100
Cc1ccc(C(=O)Nc2cc(C(F)(F)F)ccn2)cc1C#Cc1cnc(NC(=O)N2CCC(N3CCN(C)CC3)CC2)s1 [I-41, N-(5-((2-methyl-5-((4-(trifluoromethyl)pyridin-2-yl)carbamoyl)phenyl)ethynyl)thiazol-2-yl)-4-(4-methylpiperazin-1-yl)piperidine-1-carboxamide] | < 10 | 10 to 50 | 10 to 50 | 10 to 50
COC(=O)Nc1ncc(C#Cc2cc(C(=O)Nc3cc(C(F)(F)F)ccn3)ccc2C)s1 [I-3, methyl (5-((2-methyl-5-((4-(trifluoromethyl)pyridin-2-yl)carbamoyl)phenyl)ethynyl)thiazol-2-yl)carbamate] | < 10 | 10 to 50 | 10 to 50 | 10 to 50
COCCNC(=O)Nc1ncc(C#Cc2cc(C(=O)Nc3cc(C(F)(F)F)ccn3)ccc2C)s1 [I-5, 3-((2-(3-(2-methoxyethyl)ureido)thiazol-5-yl)ethynyl)-4-methyl-N-(4-(trifluoromethyl)pyridin-2-yl)benzamide] | < 10 | 10 to 50 | 10 to 50 | 10 to 50
Cc1ccc(C(=O)Nc2cc(C(F)(F)F)ccn2)cc1C#Cc1cnc(NC(=O)N(C)C2CN(C)C2)s1 [I-39, 4-methyl-3-((2-(3-methyl-3-(1-methylazetidin-3-yl)ureido)thiazol-5-yl)ethynyl)-N-(4-(trifluoromethyl)pyridin-2-yl)benzamide] | 10 to 50 | 100 to 10000 | 100 to 10000 | 100 to 10000
